Test results: patent publication US9377466B2, “Compounds and methods” (Modpro AB, priority 2010, dated 2016)
Read-outs that look alike come from different tables or passages of the source. Blank lines part the entries; values can stand above or below the compound they belong to. Side chains are listed from the residue outwards. Ends that are not written are not given here. * marks the point of attachment. Benzoyl(4-SO2NH2) = NS(=O)(=O)c1ccc(C(=O)*)cc1; Acridin9yl = c1ccc2c(*)c3ccccc3nc2c1; X1 = COc1ccc2cc(C(=O)*)c(=O)oc2c1; Ahx = NCCCCCC(=O)O

Legend:
thymidine kinase (TK) [1] = assay: Fluorescence binding studies with TK; settings: 2 μM peptide, one and two equivalents of TK
Method: Estimating that at least 60% of the peptides were then bearing the ligand, the solution was diluted to 2 μM concentration and the protein TK was added. The fluorescence response was screened after 15 min, 45 min, 2 hrs, and 20 hrs. A maximal response was seen after 2 hours of incubation time.
A NUNC™ polystyrene 384 well plate (100 μl-volume) and pipette-tips were coated with Pluronic® overnight, then washed with H2O and dried. The fluorescence-measurement was carried out in Tris-buffers (Buffer for TK-studies: 20 mM Tris/HCl, 0.4 M NaCl, 0.3 M imidazole, 2 mM DTT, 50% glycerol, pH 7.6). Assuming that at least 60% of the dT-binder was conjugated to the polypeptides (see 0), stock-solutions were prepared with a concentration of 60 μM. The concentration of the TK stock solution was 0.10 mM. A polypeptide concentration of 2 μM in […] was used. The protein was added to wells containing the peptide conjugates to give final TK concentrations of 2 or 4 μM. Fluorescence intensities of protein-binder mixtures were compared to intensities of binders without protein and a significant change in fluorescence intensity in the presence of one equivalent of protein, in comparison to that of binder without protein, was interpreted as complexation of target protein by the binder. Binders showing a change in intensity in the presence of 2 μM protein but no further change in intensity in the presence of 4 μM protein were considered “hits”.
The dansyl probe was excited at 335 nm and emission was recorded 420-600 nm. All measurements were performed at room temperature and were made in triplicates. The wells were read after 15 min, 45 min and 2 hours.

thymidine kinase (TK) [2] = assay: Binding studies with TK in the presence of ATP (fluorescence, MALDI-TOF)
Method: The fluorescence intensities were measured in presence of 1, 2 and 3 eq. TK in buffer with and without ATP. The introduction of ATP represents a realistic measurement situation as it is present in biological samples and is likely to react with the probe in the presence of TK. Data were collected 15 min, 45 min and 2 hrs after adding the enzyme. The samples for MALDI-TOF were collected appr. 5 mins, 45 mins and 2 hours after adding the enzyme to measure the change in masses.

hAChE [3] = settings: known inhibitor, literature; cited from earlier work
[4] = test system: human Carbonic Anhydrase (HCAI and HCAII); assay: Extraction from lysed blood by binders on nanoparticles (SDS-PAGE, MS); format: binding; settings: lysed fresh blood, silver stained gel
Method: The selected binders were resynthesized with an Acm-protected Cys residue in position 24. After removal of the Acm group the binders were immobilized on polystyrene nanoparticles coated with Pluronic® F108-PDS, by incubation for 1 hour in 10 mM Phosphate buffer at pH 7.4 containing 150 mM NaCl. The coating material forms monolayers of PEG equipped with activated disulfide groups that spontaneously react with free thiols under the release of 2-mercaptopyridine (Fromell, K., Hulting, G., Ilichev, A., Larsson, A. & Caldwell, K. C. Analytical Chemistry 79, 8601-07 (2007)).
Approximately 60 μL of freshly drawn blood was lysed by dilution in 240 μL of distilled water followed by centrifugation to remove cell debris. HCAII resides in the red blood cells and in order to access the protein, cells have to be lysed. The supernatant was isolated and incubated with the functionalized nanoparticles for 30 minutes to allow them to capture HCAII. The particles were washed three times in PBS, and centrifuged after each wash. The binders and the captured proteins were cleaved from the particles using dithiothreitol and separated from the particles by centrifugation. […]
There are two isoforms of human Carbonic Anhydrase, HCA I and HCAII, in blood. […] The bands from the gel were cut, […] digested and analysed by MALDI-TOF-MS, displaying that the bands contained both isoforms. […]

hAChE [5] = molecular target: T1, hAChE (Homo sapiens, UniProt P22303); assay: Capture of hAChE from cerebrospinal fluid by binder on nanoparticles (SDS-PAGE, nanoparticle ELISA); format: binding; settings: binder on Pluronic-coated polystyrene nanoparticles, patient CSF, sandwich ELISA
T1 construct: monitoring the capturing of hAChE from cerebrospinal fluid (CSF) obtained from Uppsala University hospital; from tissue; host or cells: human cerebrospinal fluid (Uppsala University Hospital)
T1 sequence (P22303 32-614): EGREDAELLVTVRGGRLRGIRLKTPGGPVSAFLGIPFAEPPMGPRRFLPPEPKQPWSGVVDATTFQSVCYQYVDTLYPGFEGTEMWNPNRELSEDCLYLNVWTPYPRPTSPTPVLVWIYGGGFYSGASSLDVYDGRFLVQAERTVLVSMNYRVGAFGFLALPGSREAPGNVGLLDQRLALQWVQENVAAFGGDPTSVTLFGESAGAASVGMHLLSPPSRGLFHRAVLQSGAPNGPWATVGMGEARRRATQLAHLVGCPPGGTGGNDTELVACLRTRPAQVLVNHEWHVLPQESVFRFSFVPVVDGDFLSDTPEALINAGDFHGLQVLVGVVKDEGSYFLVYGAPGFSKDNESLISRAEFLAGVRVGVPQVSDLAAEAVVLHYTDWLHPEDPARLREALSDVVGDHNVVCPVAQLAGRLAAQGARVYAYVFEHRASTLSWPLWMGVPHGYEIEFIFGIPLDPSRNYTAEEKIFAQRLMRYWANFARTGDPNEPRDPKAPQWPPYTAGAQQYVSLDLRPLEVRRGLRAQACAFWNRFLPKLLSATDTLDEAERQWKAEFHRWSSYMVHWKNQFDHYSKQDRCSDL
Method: The selectivity of 4-C10L17-Ac was determined by monitoring the capturing of hAChE from cerebrospinal fluid (CSF) obtained from Uppsala University hospital. CSF represents a complex biological milieu with several other proteins in high concentration and one of considerable interest with regards to future applications. The selected binder was resynthesized with an acetamidomethyl-(Acm-) protected Cys residue in position 24, instead of an Ala in this position, and attached to polystyrene nanoparticles coated with Pluronic® F108-PDS by disulfide bond formation after Acm deprotection. […] After the washing steps the particles were analyzed by ELISA and gel electrophoresis. […]
The capture of hAChE by 4-C10L17-Ac was also analyzed by a nanoparticle ELISA based on luminescence. […] After three washing steps the substrate luminol was added and the resulting luminescent signal recorded. […]
Pluronic F108-PDS (Allvivo Inc.) was adsorbed to polystyrene latex nanoparticles (Bangs laboratories Inc.) by incubating a 2% (w/v) suspension of particles with 10 mg/mL of Pluronic F108-PDS over night at room temperature under constant shaking. […] Aliquots of 8 μL of the supernatants were analyzed by gradient SDS-PAGE gels electrophoresis using NuPAGE® Novex Bis-Tris 4-12% (v/w) gel and MES running buffer (Invitrogen). […]

HCAII = molecular target: T2, HCAII (Homo sapiens, UniProt P00918); assay: SPR biosensor analysis, immobilized HCAII; format: binding; settings: ratio of SPR dissociation constants
T2 construct: purchased Sigma
Method: The sixteen polypeptide conjugates were also characterized by SPR biosensor analysis (Biacore®, GE Healthcare), using a Biacore® 2000 instrument, Biacore® CM-5 chip and HBS-EP buffer pH 7.4 (Biacore®, GE Healthcare) with addition of 1% DMSO for the interaction studies. Peptide solutions were prepared by dilution in buffer from 20 μM stock solutions in DMSO. HCAII was immobilized on the chip using standard EDC/NHS coupling in Acetate buffer pH 5.5. The binders were allowed to flow over the chip at 7 concentrations in the range from 1 nM to 500 nM and the interactions were evaluated using a 1:1 binding model (BiaEvaluation).
HCAI and HCAII were immobilized in different flowcells on a CM-5 (Biacore) chip using standard EDC/NHS coupling in Acetate buffer at pH 5.5.
SPR measurements were performed on a Biacore® 2000 instrument, with the proteins immobilized on a Biacore® CM-5 sensor chips (GE Healthcare). All interaction studies were performed in Biacore® HSB-EP buffer with the addition of 1% (v/v) DMSO. HCAII (Sigma, lyophilized powder) was dissolved in Acetate buffer pH 5.5 to a 2 mg/mL solution. HCAII were conjugated to the surface by EDC/NHS coupling reactions in Acetate buffer pH 5.5. Solutions of the polypeptide binders were prepared in HBS-EP buffer from stock solutions of 20 μM in DMSO and allowed to flow over the surface at 20 μL/min, with blank injections after every series. […]

Solubility in buffer = settings: sequence conjugated to a fluorescein probe
HCAI = molecular target: T3, HCAI (Homo sapiens, UniProt P00915); settings: literature, read-out: dissociation constant Kd for HCAI, cited from earlier work
T3 construct: purchased Sigma
T3 sequence (P00915 whole entry): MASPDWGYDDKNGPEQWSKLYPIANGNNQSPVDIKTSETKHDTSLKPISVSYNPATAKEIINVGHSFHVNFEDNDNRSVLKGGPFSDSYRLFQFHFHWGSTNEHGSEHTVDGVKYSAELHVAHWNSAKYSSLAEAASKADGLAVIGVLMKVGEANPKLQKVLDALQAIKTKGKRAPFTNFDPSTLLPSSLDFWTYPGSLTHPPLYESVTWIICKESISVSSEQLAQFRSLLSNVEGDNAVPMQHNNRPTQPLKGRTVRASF

- classification in fluorescence screen (thymidine kinase (TK) [1]): not considered to be tight binders
Compound: 2-C37L34-dT: polypeptide 2-C37L34 conjugated to deoxy-thymidine (dT) probe 19 (NAADLEAAIRHLAERLAARGPVDAAQLAEQLAAKFEKFARAG; also: conjugated to deoxy-thymidine (dT) probe 19, site not given here)

- classification in fluorescence screen (thymidine kinase (TK) [1]): not considered to be tight binders
Compound: 3-C10L17-dT: polypeptide 3-C10L17 conjugated to deoxy-thymidine (dT) probe 19 (NAADLEARIKHLAERLKARGPVDAAQLAEQLARAFEAFARAG; also: conjugated to deoxy-thymidine (dT) probe 19, site not given here)

- classification in fluorescence screen (thymidine kinase (TK) [1]): not considered to be tight binders
Compound: 4-C15L8-dT: polypeptide 4-C15L8 conjugated to deoxy-thymidine (dT) probe 19 (NAADLEAKIRHLREKLAARGPRDAAQLAEQLARRFERFARAG; also: conjugated to deoxy-thymidine (dT) probe 19, site not given here)

- binding affinity to TK (in words) (thymidine kinase (TK) [2]; 1, 2 and 3 eq. TK, buffer with and without ATP): generally good binding affinity
- time after which peptide is fully phosphorylated (MALDI-TOF) (thymidine kinase (TK) [2]; TK, buffer with ATP): 5 to 10 min
- classification in fluorescence screen (thymidine kinase (TK) [1]): not considered to be tight binders
Compound: 4-C25L22-dT: polypeptide 4-C25L22 conjugated to deoxy-thymidine (dT) probe 19 (NAADLEARIRHLRERLAARGPKDAKQLAEQLARAFERFARAG; also: conjugated to deoxy-thymidine (dT) probe 19, site not given here)

Compound: Nc1c2ccccc2nc2ccccc12 [9-aminoacridine]
- reported affinity (hAChE [3]): 30 to 100 nM

Compound: Ac-NAADLEAK([Ahx-Benzoyl(4-SO2NH2)])IRHLAEK(X1)LAARGPVDAAQLAEQLARRFEAFARAG-NH2 (C-terminus assumed) [3-C15L8-B]
- proteins extracted from lysed blood [4]: extract Carbonic Anhydrases predominantly

Compound: Ac-NAADLEARIK(X1)HLRERLK([Ahx-Ahx-Acridin9yl])ARGPRDAAQLAEQLARAFERFARAG-NH2 (C-terminus assumed) [4-C10L17-Ac]
- capture of hAChE from CSF (hAChE [5]): selectively extract hAChE from CSF

Compound: Ac-NAADLEARIRHLRERLAARGPRDAAQLAEQLARK([Ahx-Benzoyl(4-SO2NH2)])FEK(X1)FARAG-NH2 (N-terminus and C-terminus assumed) [4-C37L34-B]
- proteins extracted from lysed blood [4]: extract Carbonic Anhydrases predominantly
- discrimination between HCAI and HCAII (factor) (HCAII): approximately 30
- solubility in buffer (Solubility in buffer): poorly soluble

Compound: benzenesulphonamidecarboxylic acid
- Kd (HCAI; listed as benzenesulphonamide): 1000 to 4000 nM
- Kd (HCAI): 1100 to 3900 nM
